Assay results: paper PMC7278359, “Small molecule AX-024 reduces T cell proliferation independently of CD3ϵ/Nck1 interaction, which is governed by a domain swap in the Nck1-SH3.1 domain” (The Journal of Biological Chemistry, 2020)
“Also recorded” adds a separate entry of the source.

Tests used:
[1] = system: P-Zap70 in primary T cells; experiment: Zap70 phosphorylation in primary T cells, flow cytometry; format: cell-based, human
Experimental: Figure 4. […] Healthy donor PBMCs were isolated rested overnight and pretreated with 20 μM AX-024 or vehicle prior to stimulation with 20 μg·ml^−1 (A) or 10 μg·ml^−1 (B) anti-CD3. The cells were gated on live cells, CD3, and CD4 for assessment of P-Zap70. Error bars, S.D.
Human PBMCs from healthy donors were prepared from 50 ml of fresh blood with Ficoll in Leucosep tubes. The tubes were centrifuged at room temperature (30 min, 800 × g) without brake. Isolated cells were washed and staved overnight. The cells were treated with AX-024 or vehicle and incubated for 1 h at 37 °C followed by further incubation on ice. 10, 25, or 50 μg·ml^−1 anti-CD3-biotin (clone OKT3, BioLegend) was added to the cells on ice for 15 min before neutravidin was added at a final concentration of 20 μg·ml^−1 for cross-linking. After stimulation for 3 min at 37 °C, cells were fixed (BD Cytofix fixation buffer) and permeabilized (TruePhos buffer, BioLegend). Staining was performed with CD3-PerCP (clone SK7, BD), CD4-BUV395 (clone SK3, BD), CD8-BV605 (clone RPAT8, BioLegend), and Zap70-PE (clone 65E4, CST). Flow cytometry and data analysis were done as described above.

[2] = system: monomeric Nck1-SH3.1; experiment: Ligand-observed NMR with monomeric Nck1-SH3.1; format: binding, human; conditions: 50 μM ligand, 10 μM monomeric Nck1-SH3.1 (residues 1–61), pH 6.5, 150 mM NaCl, 27 °C
Experimental: (§1) NMR spectra were recorded on a Bruker 600-MHz Avance NEO spectrometer equipped with a cryogenic QCI probe head at 27 °C in 25 mM […], 150 mM NaCl. The Topspin 4.0 software (Bruker, Fällanden) was used for spectrometer operation and data processing. For ^1H ligand-observed measurements, a relaxation filtered pulse sequence utilizing a spinlock of 50 ms was applied. 1D spectra were acquired with 128 scans, a sweep width of 26 ppm, and an acquisition time of 2 s. 2D ^1H-^15N HSQC spectra with natural ^15N isotope abundance were recorded over 72 h with a spectral width of 16 ppm and 35 ppm in the proton and nitrogen dimensions, respectively, with 256 increments (complex) and 1000 scans per increment. A relaxation delay of 1 s was used between scans. For the DOSY measurements (reviewed in Ref. [51]), the Bruker pulse sequence ledbpgp2s with a diffusion delay of 50 ms and a gradient length of 600 μs was used. The gradient strength was varied from 5 to 95% to record 16 increments of 512 scans with a sweep width of 18 ppm and a relaxation delay of 1 s.
(§2) Samples for ligand-observed measurements were prepared in 25 mM sodium phosphate buffer, pH 6.5, 150 mM NaCl. One sample contained 50 μM AX-024, and the other contained 50 μM CD3ϵ peptide.

[3] = system: CD3ϵ peptide/Nck1-SH3.1 interaction; experiment: SPR competition with CD3ϵ peptide on immobilized Nck1-SH3.1; format: binding, human; conditions: 100 μM AX-024 co-injected with 100 μM CD3ϵ peptide
Experimental: SPR experiments were conducted on a T200 Biacore instrument (GE Healthcare, Uppsala, Sweden) at 20 °C in 10 mM HEPES/NaOH, pH 7.8, 150 mM NaCl, 1 mM TCEP. His10-Avi-TEV-Nck1-SH3.1 (residues 1–61, MM 11,847 Da) was biotinylated and immobilized via streptavidin on the surface of either a CAP or a SA sensor, prepared according to the manufacturer's instructions (GE Healthcare). Streptavidin is immobilized on the CAP sensor by way of double-strand DNA formation. A ssDNA is covalently coupled to the sensor surface, and a complementary DNA strand, covalently linked to streptavidin, is hybridized. To regenerate the surface, the DNA duplex is dissociated by washing with high-ionic strength solution. Thus, after each titration, fresh biotinylated Nck1-SH3.1 was immobilized on the sensor surface. For CD3ϵ peptide-binding experiments, the surface density of the Nck1-SH3.1 domain was ∼250 response units (RU), whereas for binding experiments with AX-024 and APVA variant peptides, the surface density of Nck1-SH3.1 was increased to 1260 RU. […]
Binding of the CD3ϵ-derived peptide […]-NH2 (CD3ϵ residues 173–188; MM 1864.1 Da) or of the APVA variant […]-NH2 (MM 1811.1 Da) to the immobilized Nck1-SH3.1 domain was monitored in a concentration-dependent manner between 0.4 and 100 μM CD3ϵ peptide (200 μM in the case of the APVA variant peptide). […]

[4] = system: Zap70 phosphorylation in anti-CD3–stimulated T cells; conditions: ref [10]; cited from earlier work
Experimental: It was shown previously that Nck contributes to TCR signaling after weak stimulation of T cells. […] To obtain a strong dependence of TCR signaling on Nck, different stimulation conditions with low concentrations of anti-CD3 in the absence of co-stimulatory signals were assessed in the presence of AX-024 (Fig. 4). […] At the outset of this study, further development of AX-024, published as a PPI of the Nck1/CD3ϵ interaction ([10]), was anticipated. Unfortunately, we could not replicate all biological effects attributed to this compound. […] Whereas there is an inhibitory effect of AX-024 on T cell proli ...

[5] = system: dimeric Nck1-SH3.1; experiment: Ligand-observed NMR with dimeric Nck1-SH3.1; format: binding, human; conditions: 50 μM ligand, 10 μM dimeric Nck1-SH3.1 (residues 1–61), pH 6.5, 150 mM NaCl, 27 °C
Experimental: as §1, §2

## COc1ccc2c(c1)C(c1ccc(F)cc1)=C(CN1CCCC1)CO2.Cl [AX-024, 1-((4-(4-fluorophenyl)-6-methoxy-2H-chromen-3-yl)methyl)pyrrolidine hydrochloride]
[1]; PBMCs from healthy donors, 20 μM AX-024 pretreatment, 20 or 10 μg·ml^−1 anti-CD3, gated on live, CD3, CD4
  reduction of Zap70 phosphorylation: does not significantly reduce Zap70 phosphorylation
[1]; different stimulation conditions, low anti-CD3, no co-stimulation
  reduction of Zap70 phosphorylation: none of the conditions tested resulted in significant reduction of Zap70 phosphorylation
[2]
  ligand-observed NMR, spectral change / line broadening: no binding of AX-024 was detected by NMR; also recorded: do not show any spectral changes
[3]
  effect on binding of CD3ϵ peptide to Nck1-SH3.1 (competition): unaffected by AX-024; also recorded: failed to show an effect on binding of CD3ϵ to immobilized Nck1-SH3.1
[4]
  reduction of Zap70 phosphorylation: reduces Zap70 phosphorylation to the same level as in unstimulated T cells; also recorded: reduces ZAP70 phosphorylation in anti-CD3–stimulated T cells to levels comparable with unstimulated T cells
[5]
  ligand-observed NMR, spectral change / line broadening: do not show any spectral changes; also recorded: no interaction was observed
